Source: ChEMBL document CHEMBL2440076, “New triarylpyrazoles as broad-spectrum anticancer agents: design, synthesis, and biological evaluation” (Eur J Med Chem, 2013)

What was measured:
Format in all cases: functional
UACC-62 = experiment: Growth inhibition of human UACC62 cells assessed as cell growth at 3X10'-7 M after 48 hrs by sulforhodamine B assay; settings: UACC-62, 48 h, read-out: Activity
LOX IMVI [1] = experiment: Growth inhibition of human LOXIMVI cells assessed as cell growth at 3X10'-7 M after 48 hrs by sulforhodamine B assay; settings: read-out: Activity
U-251 = experiment: Growth inhibition of human U251 cells assessed as cell growth at 3X10'-7 M after 48 hrs by sulforhodamine B assay; settings: U-251, 48 h, read-out: Activity
SF-295 = experiment: Growth inhibition of human SF295 cells assessed as cell growth at 3X10'-7 M after 48 hrs by sulforhodamine B assay; settings: SF-295, 48 h, read-out: Activity
HT-29 = experiment: Growth inhibition of human HT-29 cells assessed as cell growth at 3X10'-7 M after 48 hrs by sulforhodamine B assay; settings: HT-29, 48 h, read-out: Activity
HCT-116 [2] = experiment: Growth inhibition of human HCT116 cells assessed as cell growth at 3X10'-7 M after 48 hrs by sulforhodamine B assay; settings: HCT-116, 48 h, read-out: Activity
K562 = experiment: Growth inhibition of human K562 cells assessed as cell growth at 3X10'-7 M after 48 hrs by sulforhodamine B assay; settings: K562, 48 h, read-out: Activity
CCRF-CEM [3] = experiment: Growth inhibition of human CCRF-CEM cells assessed as cell growth at 3X10'-7 M after 48 hrs by sulforhodamine B assay; settings: read-out: Activity
IGROV-1 = experiment: Growth inhibition of human IGROV1 cells assessed as cell growth at 3X10'-8 M after 48 hrs by sulforhodamine B assay; settings: IGROV-1, 48 h, read-out: Activity
HCT-15 [4] = experiment: Growth inhibition of human HCT15 cells assessed as cell growth at 3X10'-8 M after 48 hrs by sulforhodamine B assay; settings: HCT-15, 48 h, read-out: Activity
HCT-116 [5] = experiment: Growth inhibition of human HCT116 cells assessed as cell growth at 3X10'-8 M after 48 hrs by sulforhodamine B assay; settings: HCT-116, 48 h, read-out: Activity
NCI-H460 = experiment: Growth inhibition of human NCI-H460 cells assessed as cell growth at 3X10'-8 M after 48 hrs by sulforhodamine B assay; settings: NCI-H460, 48 h, read-out: Activity
NCI-H23 [6] = experiment: Growth inhibition of human NCI-H23 cells assessed as cell growth at 3X10'-8 M after 48 hrs by sulforhodamine B assay; settings: NCI-H23, 48 h, read-out: Activity
RPMI-8226 [7] = experiment: Growth inhibition of human RPMI8226 cells assessed as cell growth at 3X10'-8 M after 48 hrs by sulforhodamine B assay; settings: RPMI-8226, 48 h, read-out: Activity
786-0 [8] = experiment: Growth inhibition of human 786-0 cells assessed as cell growth at 3X10'-5 M after 48 hrs by sulforhodamine B assay; settings: 786-0, 48 h, read-out: Activity
OVCAR-5 = experiment: Growth inhibition of human OVCAR5 cells assessed as cell growth at 3X10'-5 M after 48 hrs by sulforhodamine B assay; settings: OVCAR-5, 48 h, read-out: Activity
A498 = experiment: Growth inhibition of human A498 cells assessed as cell growth at 3X10'-9 M after 48 hrs by sulforhodamine B assay; settings: A498, 48 h, read-out: Activity
OVCAR-3 [9] = experiment: Growth inhibition of human OVCAR3 cells assessed as cell growth at 3X10'-9 M after 48 hrs by sulforhodamine B assay; settings: OVCAR-3, 48 h, read-out: Activity
OVCAR-3 [10] = experiment: Growth inhibition of human OVCAR3 cells assessed as cell growth at 3X10'-5 M after 48 hrs by sulforhodamine B assay; settings: OVCAR-3, 48 h, read-out: Activity
M14 [11] = experiment: Growth inhibition of human M14 cells assessed as cell growth at 3X10'-5 M after 48 hrs by sulforhodamine B assay; settings: M14, 48 h, read-out: Activity
MDA-MB-231 = experiment: Growth inhibition of human MDA-MB-231 cells assessed as cell growth at 3X10'-6 M after 48 hrs by sulforhodamine B assay; settings: MDA-MB-231, 48 h, read-out: Activity
MCF7 = experiment: Growth inhibition of human MCF7 cells assessed as cell growth at 3X10'-6 M after 48 hrs by sulforhodamine B assay; settings: MCF7, 48 h, read-out: Activity
LOX IMVI [12] = experiment: Growth inhibition of human LOXIMVI cells assessed as cell growth at 3X10'-9 M after 48 hrs by sulforhodamine B assay; settings: read-out: Activity
SNB-19 = experiment: Growth inhibition of human SNB19 cells assessed as cell growth at 3X10'-9 M after 48 hrs by sulforhodamine B assay; settings: SNB-19, 48 h, read-out: Activity
SW-620 = experiment: Growth inhibition of human SW620 cells assessed as cell growth at 3X10'-9 M after 48 hrs by sulforhodamine B assay; settings: SW-620, 48 h, read-out: Activity
COLO 205 = experiment: Growth inhibition of human COLO205 cells assessed as cell growth at 3X10'-9 M after 48 hrs by sulforhodamine B assay; settings: COLO 205, 48 h, read-out: Activity
786-0 [13] = experiment: Growth inhibition of human 786-0 cells assessed as cell growth at 3X10'-6 M after 48 hrs by sulforhodamine B assay; settings: 786-0, 48 h, read-out: Activity
SK-MEL-2 = experiment: Growth inhibition of human SK-MEL-2 cells assessed as cell growth at 3X10'-6 M after 48 hrs by sulforhodamine B assay; settings: SK-MEL-2, 48 h, read-out: Activity
M14 [14] = experiment: Growth inhibition of human M14 cells assessed as cell growth at 3X10'-6 M after 48 hrs by sulforhodamine B assay; settings: M14, 48 h, read-out: Activity
LOX IMVI [15] = experiment: Growth inhibition of human LOXIMVI cells assessed as cell growth at 3X10'-6 M after 48 hrs by sulforhodamine B assay; settings: read-out: Activity
HCT-15 [16] = experiment: Growth inhibition of human HCT15 cells assessed as cell growth at 3X10'-6 M after 48 hrs by sulforhodamine B assay; settings: HCT-15, 48 h, read-out: Activity
NCI-H23 [17] = experiment: Growth inhibition of human NCI-H23 cells assessed as cell growth at 3X10'-6 M after 48 hrs by sulforhodamine B assay; settings: NCI-H23, 48 h, read-out: Activity
CCRF-CEM [18] = experiment: Growth inhibition of human CCRF-CEM cells assessed as cell growth at 3X10'-6 M after 48 hrs by sulforhodamine B assay; settings: read-out: Activity
MDA-MB-468 = experiment: Growth inhibition of human MDA-MB-468 cells assessed as cell growth at 3X10'-7 M after 48 hrs by sulforhodamine B assay; settings: MDA-MB-468, 48 h, read-out: Activity
CAKI-1 = experiment: Growth inhibition of human CAKI-1 cells assessed as cell growth at 3X10'-7 M after 48 hrs by sulforhodamine B assay; settings: CAKI-1, 48 h, read-out: Activity
NCI-H23 [19] = experiment: Growth inhibition of human NCI-H23 cells assessed as cell growth at 5X10'-6 M after 48 hrs by sulforhodamine B assay; settings: NCI-H23, 48 h, read-out: Activity
RPMI-8226 [20] = experiment: Growth inhibition of human RPMI8226 cells assessed as cell growth at 3X10'-6 M after 48 hrs by sulforhodamine B assay; settings: RPMI-8226, 48 h, read-out: Activity

SMILES | growth at 0.3 µM (UACC-62) [%] | growth at 0.3 µM (LOX IMVI [1]) [%] | growth at 0.3 µM (U-251) [%] | growth at 0.3 µM (HT-29) [%] | growth at 0.3 µM (HCT-116 [2]) [%] | growth at 0.3 µM (K562) [%] | growth at 0.3 µM (CCRF-CEM [3]) [%] | growth at 0.03 µM (IGROV-1) [%] | growth at 0.03 µM (HCT-15 [4]) [%] | growth at 0.03 µM (HCT-116 [5]) [%] | growth at 0.03 µM (NCI-H460) [%] | growth at 0.03 µM (NCI-H23 [6]) [%] | growth at 0.03 µM (RPMI-8226 [7]) [%] | growth at 30 µM (786-0 [8]) [%] | growth at 30 µM (OVCAR-5) [%] | growth at 0.003 µM (A498) [%] | growth at 0.003 µM (OVCAR-3 [9]) [%] | growth at 30 µM (OVCAR-3 [10]) [%] | growth at 30 µM (M14 [11]) [%] | growth at 5 µM (NCI-H23 [19]) [%] | further results
COc1cc(-c2nn(-c3cccc(NC(=O)Nc4ccc(Cl)c(C(F)(F)F)c4)c3)cc2-c2ccncc2)ccc1Cl | 89 | 97 | 90 | 102 | 99 | 100 | 93 | 102 | 97 | 103 | 102 | 101 | 97 | -43 | -43 | 90 | 105 | -46 | -66 |  | growth at 0.3 µM (SF-295): 93%; growth at 3 µM (MDA-MB-231): -9%; growth at 3 µM (MCF7): 5%; growth at 0.003 µM (LOX IMVI [12]): 97%; growth at 0.003 µM (SNB-19): 95%; growth at 0.003 µM (SW-620): 101%; growth at 0.003 µM (COLO 205): 106%; growth at 3 µM (786-0 [13]): 28%; growth at 3 µM (SK-MEL-2): -12%; growth at 3 µM (M14 [14]): 4%; growth at 3 µM (LOX IMVI [15]): 13%; growth at 3 µM (HCT-15 [16]): 18%; growth at 3 µM (NCI-H23 [17]): 11%; growth at 3 µM (CCRF-CEM [18]): 3%; growth at 0.3 µM (MDA-MB-468): 81%; growth at 0.3 µM (CAKI-1): 93%
O=C(Nc1cccc(-n2cc(-c3ccncc3)c(-c3ccc(Cl)c(O)c3)n2)c1)Nc1cc(C(F)(F)F)cc(C(F)(F)F)c1 |  |  |  |  |  |  |  |  |  |  |  |  |  |  |  |  |  |  |  | -18 | 
COc1cc(-c2nn(-c3cccc(NC(=O)Nc4cccc(C(F)(F)F)c4)c3)cc2-c2ccncc2)ccc1Cl |  |  |  |  |  |  |  |  |  |  |  |  |  |  |  |  |  |  |  | -18 | 
COc1cc(-c2nn(-c3cccc(NC(=O)Nc4cc(C(F)(F)F)cc(C(F)(F)F)c4)c3)cc2-c2ccncc2)ccc1Cl |  |  |  |  |  |  |  |  |  |  |  |  |  |  |  |  |  |  |  | -18 | 
O=C(Nc1cccc(-n2cc(-c3ccncc3)c(-c3ccc(Cl)c(O)c3)n2)c1)Nc1ccc(Cl)c(Cl)c1 | 91 | 90 | 100 | 110 | 99 | 110 | 90 | 104 | 103 | 100 | 105 | 93 | 102 | 5 | 1 | 103 | 96 | -37 | -28 |  | growth at 3 µM (MDA-MB-231): 15%; growth at 3 µM (MCF7): 8%; growth at 0.003 µM (LOX IMVI [12]): 96%; growth at 0.003 µM (SNB-19): 98%; growth at 0.003 µM (SW-620): 100%; growth at 0.003 µM (COLO 205): 100%; growth at 3 µM (786-0 [13]): 74%; growth at 3 µM (SK-MEL-2): -11%; growth at 3 µM (M14 [14]): 14%; growth at 3 µM (LOX IMVI [15]): 3%; growth at 3 µM (HCT-15 [16]): 14%; growth at 3 µM (NCI-H23 [17]): 11%; growth at 3 µM (RPMI-8226 [20]): 10%; growth at 3 µM (CCRF-CEM [18]): 10%; growth at 0.3 µM (MDA-MB-468): 76%; growth at 0.3 µM (CAKI-1): 88%
